# Measurements taken from patent publication US20210038732A1, “ANTICANCER MICRORNA AND LIPID FORMULATIONS THEREOF” (INTERNA TECHNOLOGIES B.V., priority 2018, published 2021).
# Experiments:
# Type in all cases: in vivo, mice
# H22 Hepatocarcinoma = test: Primary tumor growth, syngeneic model; settings: 10 mg/kg i.v BIW x 3-4 weeks, vs PBS
# From the text: (§1) In this study, the effect of miRNA-193a formulated in diamino lipid nanoparticles was investigated on the primary tumor growth in a panel of twelve syngeneic tumor models. Six to eight weeks mice (Shanghai Lingchang Bio-Technology Co. Ltd, Shanghai, China) were subcutaneously injected with an appropriate number of syngeneic cancer cells, depending on the cancer model (see Table 18). At the time of randomization, tumor volume (TV) was approximately 80-120 mm^3. Body weights and TVs (caliper measurements) were determined 2-3 times/week. After randomization (indicated as day 0) mice received PBS or miR-193a (formulated in diamino lipid nanoparticles) treatments as shown in Table 19. Each tumor model had two groups as depicted in Table 19. Mice were scheduled to be euthanized after two weeks of follow up after a maximum of four weeks of treatment.
# MC38 Colon carcinoma = test: Primary tumor growth, syngeneic model; settings: 10 mg/kg i.v BIW x 3-4 weeks, diamino lipid nanoparticles, vs PBS, median tumor volume
# From the text: as §1
# [1] = test system: EMT-6 Breast mammary carcinoma; test: Primary tumor growth, syngeneic model; settings: 10 mg/kg i.v BIW x 3-4 weeks, vs PBS
# From the text: as §1
# CT26 Colon carcinoma = test: Primary tumor growth, syngeneic model; settings: 10 mg/kg i.v BIW x 3-4 weeks, vs PBS
# From the text: as §1
# B16-BL6 Melanoma = test: Primary tumor growth, syngeneic model; settings: 10 mg/kg i.v BIW x 3-4 weeks, vs PBS
# From the text: as §1
# [2] = test system: Pan02 Pancreatic adenocarcinoma; test: Primary tumor growth, syngeneic model; settings: 10 mg/kg i.v BIW x 3-4 weeks, vs PBS
# From the text: as §1
# [3] = test system: Renca Renal adenocarcinoma; test: Primary tumor growth, syngeneic model; settings: 10 mg/kg i.v BIW x 3-4 weeks, vs PBS
# From the text: as §1
# Hepa 1-6 Hepatoma = test: Primary tumor growth, syngeneic model; settings: 10 mg/kg i.v BIW x 3-4 weeks, vs PBS
# From the text: as §1
# B16-F10 Melanoma = test: Primary tumor growth, syngeneic model; settings: 10 mg/kg i.v BIW x 3-4 weeks, vs PBS
# From the text: as §1
# LL/2 Lung carcinoma = test: Primary tumor growth, syngeneic model; settings: 10 mg/kg i.v BIW x 3-4 weeks, vs PBS
# From the text: as §1
# [4] = test system: 4T1 tumor microenvironment; test: FACS analysis of immune cells in orthotopic 4T1 tumors (Example 4.4)
# Description: Freshly isolated orthotopic 4T1 tumors were prepared for FACS analysis on day 5 (week 1) and day 12 (week 2) post miRNA-193a treatment when they reached a min tumor volume (TV) of 300 mm^3. Tumor samples were digested using murine tumor dissociation kit from Miltenyi (CAT #130-096-730). Following tumor cell digestion cells were re-suspended in 200 μl staining buffer with […] Fc-Block (Mouse BD Fc Block™ CAT #553141) and incubated at 4° C. for 15 minutes in the dark. Different markers (CD45, CD3, CD4, CD8, FoxP3, CD335, F4/80, CD11b, Gr-1, CD73, LAG3/CD223, IL-2, IFN-r, PD-1, L/D stain) have been used for FACS analysis. Antibody mixture for all markers except IL-2, IFN-r and LAG3 were diluted in Fc blocking buffer for each sample and stained for 30 min on ice, in the dark. Then, cells were gently washed by adding 2 ml of ice cold PBS to each tube. Each tube was centrifuged at 300 g for 5 minutes and supernatant was discarded. To detect intracellular markers (IL-2, IFN-r and LAG3) stimulation of the digested cells was performed. To do so, Leukocyte Activation Cocktail, with BD GolgiPlug™ was used. The cocktail was thawed at 37° C. in a water bath rapidly and for every 1 mL of cell culture (e.g., ˜10^6 cells/mL) 2 μL of cocktail was added and mixed thoroughly. To stimulate, cell culture mix was placed in a 37° C. humidified CO2 incubator for 4-6 hr. Then the cells were harvested and washed with FACS staining buffer. For staining, cell pellet was resuspended with pulse vortex and 200 ul of prepared Fixation/Permeabilization was added to each sample. Samples were incubated for 10 min at RT in the dark. Then, samples were washed twice by adding 1 ml of 1× Permeabilization Buffer (made from 10× Permeabilization Buffer, diluted with distilled H2O) followed by centrifugation and decanting of supernatant and each sample was incubated with the antibody cocktail containing FoxP3, IFN-r and IL-2 in 1× Permeabilization Buffer and incubated at RT for 30 minutes in the dark. Finally, cells were resuspended in […] of staining Buffer and analyzed on cytometer. The data was analysed by Kaluza flow cytometry software (from Beckman Coulter).
# Six to eight weeks old female BALB/c mice (Shanghai Lingchang Bio-Technology Co. Ltd, Shanghai, China) were injected with 3×10^5 4T1 mouse tumor cells in PBS (0.1 mL/mouse) into the mammary fat pad. At the time of randomization, the TVs ranged between 69.9 and 173.9 mm3 (median 105.7, IQR=100.7-125.4). Body weights and TVs (caliper measurements) were determined 2-3 times/week. After randomization (day 9 after tumor inoculation) mice received different treatments under different dosing regimen (see Table 9 for dosing scheme). For all groups, 4 mice are sacrificed 48h after the 2nd miRNA-193a injection in the first week and in the 2nd week. Primary tumors were surgically removed from the mammary fat pad on day 20 after inoculation. After a recovery period of 3 days, treatment was resumed for 6 more weeks until day 63. Re-growth of (distant) tumors was monitored in addition to BW, and mice were sacrificed if end-points were met.
substance,measurement,setting,value
"miRNA-193a: duplex of the miRNA-193a-3p of SEQ ID NO: 218 (mimic, sense) with antisense strand SEQ ID NO: 219; naked in vitro, formulated in vivo (sense UGGGACUUUGUAGGCCAGUUTT; antisense AACUGGCCUACAAAGUCCCAGU; chemistry not given here; listed as Homo sapiens)",% TGI by miRNA-193a,H22 Hepatocarcinoma,45%
same,% TGI by miRNA-193a,MC38 Colon carcinoma,71%
same,% TGI by miRNA-193a,[1],42%
same,% TGI by miRNA-193a,CT26 Colon carcinoma,12%
same,% TGI by miRNA-193a,B16-BL6 Melanoma,34%
same,% TGI by miRNA-193a,[2],46%
same,% TGI by miRNA-193a,[3],22%
same,% TGI by miRNA-193a,Hepa 1-6 Hepatoma,7%
same,% TGI by miRNA-193a,B16-F10 Melanoma,56%
same,% TGI by miRNA-193a,LL/2 Lung carcinoma,64%
same,Ratio of CD8+ T cells/Treg cells,"[4]; 2 weeks post start of treatment, 10 mg/kg BIW iv, diamino lipid nanoparticles",> 1
same,Regulatory T cell population (FOXP3+/LAG3+),[4]; after 1 week,significant decrease
same,T-cell function (production of IFNγ and IL-2),"[4]; after 1 week, CD45+ tumor cell population",significant increase
same,Regulatory T cell population (FOXP3+/LAG3+),[4]; after 2 weeks,significant decrease
same,T-cell frequency (CD8+),[4]; after 2 weeks,significant increase
same,T-cell function (IFNγ),[4]; after 2 weeks,mild induction
same,CD73 (NT5E) expression level in immune cells,"[4]; week 1 and week 2, 48h after administration",down-regulated
